From EP3575287A1, “INHIBITORS OF N-ACYLPHOSPHATIDYLETHANOLAMINE PHOSPHOLIPASE D (NAPE-PLD)” (Universiteit Leiden, priority 2018, dated 2019)

Biological target: T1, human NAPE-PLD (Homo sapiens, UniProt Q6IQ20)
T1 construct: Full length human cDNA NAPE-PLD was obtained from Natsuo Ueda; made in house; host or cells: HEK293T cells, transient transfection (pcDNA3.1); membrane fraction used
Assay: In vitro NAPE-PLD activity assay
Format: biochemical
Conditions: membrane protein fraction of HEK293T cells overexpressing human NAPE-PLD; substrate PED6 1 µM; 30 minutes preincubation at 37 °C
Experimental: Full length human cDNA NAPE-PLD was obtained from Natsuo Ueda^1 and cloned into mammalian expression vector pcDNA3.1, containing a C-terminal Flag-tag and genes for ampicillin and neomycin resistance. All plasmids were grown in XL-10 Z-competent cells and prepped (Maxi Prep, Qiagen). Sequence analysis for the confirmation of the sequences was performed at the Leiden Genome Technology Centre.
HEK293T were cultured at 37 °C and 7% CO2 in DMEM (Sigma Aldrich, D6546) with glutamax, penicillin (100 µg/ml), streptomycin (100 µg/ml) and 10% New Born Calf Serum iron supplemented (Hyclone SH30072.03). Cells were passaged twice a week to appropriate confluence.
24 hours before transfection 10^7 cells are seeded on a 15 cm dish. Two hours before transfection medium is refreshed, low volume. Transfection is performed with PEI in a ratio of 3:1 with human NAPE-PLD or Mock pcDNA3.1 Neo, 20 µg per dish. Medium is refreshed after 24 hours and cells are harvested after 72 hours.
Cell pellets are re-suspended in lysis buffer: 20 mM Hepes, 2 mM DTT, 0.25 M sucrose, 1 mM MgCl2, 2.5 U/ml benzonase and incubated 30 minutes on ice. The cytosolic fraction (supernatant) is separated from the membranes by ultra-centrifugation (32000 rpm for 30 minutes 100,000g). The pellet is resuspended in storage buffer: 20 mM Hepes, 2 mM DTT (membrane fraction). All samples are stored at -80°C. Enzyme concentrations are determined using a Bradford assay.
The NAPE-PLD activity assay is based on a previously reported method with small alterations.^2 The membrane protein fraction from transient overexpression of human NAPE-PLD in HEK293T cells was diluted to 0.4 mg/ml in assay buffer: 50 mM Tris-HCl (pH 7.5), 0.02% Triton X-100, 150 mM NaCl. The substrate PED6 (Invitrogen) 1 mM stock was consecutively diluted in DMSO (10x) and in assay buffer (10x) to make a 10 µM working solution. […] The assay is performed in a dark Greiner 96 wells plate, end volume 100 µl. The compound or DMSO is incubated with membrane protein lysate (final concentration 0.04 mg/ml) for 30 minutes at 37 °C. […] Mock lysate with DMSO is used for background substraction. IC50 curves are generated used Graphpad Prism v6.

T1 sequence (Q6IQ20 whole entry): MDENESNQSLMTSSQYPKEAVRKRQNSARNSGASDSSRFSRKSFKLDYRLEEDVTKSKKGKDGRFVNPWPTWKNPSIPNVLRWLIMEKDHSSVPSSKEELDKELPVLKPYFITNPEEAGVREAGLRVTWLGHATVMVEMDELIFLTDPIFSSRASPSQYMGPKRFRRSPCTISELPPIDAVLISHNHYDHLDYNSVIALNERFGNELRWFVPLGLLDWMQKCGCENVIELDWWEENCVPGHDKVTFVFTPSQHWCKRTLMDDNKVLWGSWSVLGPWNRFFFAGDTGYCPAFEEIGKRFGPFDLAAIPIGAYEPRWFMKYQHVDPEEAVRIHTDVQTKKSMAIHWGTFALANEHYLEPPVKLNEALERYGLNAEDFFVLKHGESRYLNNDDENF

IC50	SMILES
2240 nM	CN(CCc1ccccc1)c1nc(C(=O)NCC2CC2)cc(-n2ccnc2)n1 [Example 23, N-(cyclopropylmethyl)-6-(1H-imidazol-1-yl)-2-(methyl(phenethyl)amino)pyrimidine-4-carboxamide]
1200 nM	CN(CCc1ccccc1)c1nc(C(=O)NCC2CC2)cc(-n2cccn2)n1 [Example 24, N-(cyclopropylmethyl)-2-(methyl(phenethyl)amino)-6-(1H-pyrazol-1-yl)pyrimidine-4-carboxamide]
427 nM	CN(CCc1ccccc1)c1nc(C(=O)NCC2CC2)cc(N2CCC2)n1 [Example 25, N-(cyclopropylmethyl)-2-(methyl(phenethyl)amino)-6-(azetidin-1-yl)pyrimidine-4-carboxamide]
1660 nM	CN(CCc1ccccc1)c1nc(C(=O)NCC2CC2)cc(N2CC3(COC3)C2)n1 [Example 26, N-(cyclopropylmethyl)-2-(methyl(phenethyl)amino)-6-(2-oxa-6-azaspiro[3.3]heptan-6-yl)pyrimidine-4-carboxamide]
155 nM	CN(CCc1ccccc1)c1cc(C(=O)NCC2CC2)nc(N(C)CCc2ccccc2)n1 [Example 27, N-(cyclopropylmethyl)-2,6-bis(methyl(phenethyl)amino)pyrimidine-4-carboxamide]
1100 nM	CN(Cc1ccccc1)c1cc(C(=O)NCC2CC2)nc(N(C)CCc2ccccc2)n1 [Example 28, N-(cyclopropylmethyl)-2-(methyl(phenethyl)amino)-6-(benzyl(methyl)amino)pyrimidine-4-carboxamide]
1410 nM	CN(CCc1ccccc1)c1nc(C(=O)NCC2CC2)cc(N2CCC(c3ccccc3)C2)n1 (stereo not drawn) [Example 29, N-(cyclopropylmethyl)-2-(methyl(phenethyl)amino)-6-(3-phenylpyrrolidin-1-yl)pyrimidine-4-carboxamide]
1000 nM	CN(CCO)c1cc(C(=O)NCC2CC2)nc(N(C)CCc2ccccc2)n1 [Example 30, N-(cyclopropylmethyl)-6-((2-hydroxyethyl)(methyl)amino)-2-(methyl(phenethyl)amino)pyrimidine-4-carboxamide]
1170 nM	CN(CCc1ccccc1)c1nc(C(=O)NCC2CC2)cc(N2CCC(F)(F)C2)n1 [Example 31, N-(cyclopropylmethyl)-6-(3,3-difluoropyrrolidin-1-yl)-2-(methyl(phenethyl)amino)pyrimidine-4-carboxamide]
224 nM	CN(CCc1ccccc1)c1nc(C(=O)NCC2CC2)cc(N2CCC(O)C2)n1 (stereo not drawn) [Example 32, N-(cyclopropylmethyl)-6-(3-hydroxypyrrolidin-1-yl)-2-(methyl(phenethyl)amino)pyrimidine-4-carboxamide]
9550 nM	CN(CCc1ccccc1)c1nc(C(=O)NCC2CC2)cc(N2CCC(N(C)C)C2)n1 (stereo not drawn) [Example 33, N-(cyclopropylmethyl)-6-(3-(dimethylamino)pyrrolidin-1-yl)-2-(methyl(phenethyl)amino)pyrimidine-4-carboxamide]
708 nM	COC1CCN(c2cc(C(=O)NCC3CC3)nc(N(C)CCc3ccccc3)n2)C1 (stereo not drawn) [Example 34, N-(cyclopropylmethyl)-6-(3-methoxypyrrolidin-1-yl)-2-(methyl(phenethyl)amino)pyrimidine-4-carboxamide]
1000 nM	O=C(NCC1CC1)c1cc(N2CCOCC2)nc(N2CCN(Cc3ccccc3)C(c3ccccc3)C2)n1 (stereo not drawn) [Example 35, 2-(4-benzyl-3-phenylpiperazin-1-yl)-N-(cyclopropylmethyl)-6-morpholinopyrimidine-4-carboxamide]
5010 nM	CN(CCc1ccccc1)c1nc(C(=O)NCCO)cc(N2CCOCC2)n1 [Example 36, N-(2-hydroxyethyl)-2-(methyl(phenethyl)amino)-6-morpholinopyrimidine-4-carboxamide]
1230 nM	O=C(NCC1CC1)c1cc(N2CCOCC2)nc(N2CCOC(c3ccccc3)C2)n1 (stereo not drawn) [Example 37, N-(cyclopropylmethyl)-6-morpholino-2-(2-phenylmorpholino)pyrimidine-4-carboxamide]

The next lines start with the compound.

SMILES	IC50
CN(CCc1ccccc1)c1nc(Oc2cccnc2)cc(C(=O)NCC2CC2)n1 [Example 1, N-(cyclopropylmethyl)-2-(methyl(phenethyl)amino)-6-(pyridin-3-yloxy)pyrimidine-4-carboxamide]	5250 nM
CN(CCc1ccccc1)c1nc(C(=O)NCC2CC2)cc(N2CCC(F)(F)CC2)n1 [Example 2, N-(cyclopropylmethyl)-6-(4,4-difluoropiperidin-1-yl)-2-(methyl(phenethyl)amino)pyrimidine-4-carboxamide]	8910 nM
CN(CCc1ccccc1)c1nc(C(=O)NCC2CC2)cc(N2CCCCC2)n1 [Example 3, N-(cyclopropylmethyl)-2-(methyl(phenethyl)amino)-6-(piperidin-1-yl)pyrimidine-4-carboxamide]	646 nM
CCNC(=O)c1cc(N2CCOCC2)nc(N(C)CCc2ccccc2)n1 [Example 4, N-ethyl-2-(methyl (phenethyl)amino)-6-morpholinopyrimidine-4-carboxamide]	4570 nM
CN(CCc1ccccc1)c1nc(C(=O)NCC2CC2)cc(N2CCSCC2)n1 [Example 5, N-(cyclopropylmethyl)-2-(methyl(phenethyl)amino)-6-thiomorpholinopyrimidine-4-carboxamide]	2630 nM
CC(C)CNC(=O)c1cc(N2CCOCC2)nc(N(C)CCc2ccccc2)n1 [Example 6, N-isobutyl-2-(methyl(phenethyl)amino)-6-morpholinopyrimidine-4-carboxamide]	7080 nM
CN1CCN(c2cc(C(=O)NCC3CC3)nc(N(C)CCc3ccccc3)n2)CC1 [Example 7, N-(cyclopropylmethyl)-2-(methyl(phenethyl)amino)-6-(4-methylpiperazin-1-yl)pyrimidine-4-carboxamide]	1580 nM
C#CCNC(=O)c1cc(N2CCOCC2)nc(N(C)CCc2ccccc2)n1 [Example 8, 2-(methyl(phenethyl)amino)-6-morpholino-N-(prop-2-yn-1-yl)pyrimidine-4-carboxamide]	912 nM
CCCCNC(=O)c1cc(N2CCOCC2)nc(N(C)CCc2ccccc2)n1 [Example 9, N-butyl-2-(methyl (phenethyl)amino)-6-morpholinopyrimidine-4-carboxamide]	6760 nM
CN(CCc1ccccc1)c1nc(C(=O)NCC2CC2)cc(N2CCNCC2)n1 [Example 11, N-(cyclopropylmethyl)-2-(methyl(phenethyl)amino)-6-(piperazin-1-yl)pyrimidine-4-carboxamide]	5370 nM
CC(=O)N1CCN(c2cc(C(=O)NCC3CC3)nc(N(C)CCc3ccccc3)n2)CC1 [Example 12, 6-(4-acetylpiperazin-1-yl)-N-(cyclopropylmethyl)-2-(methyl(phenethyl)amino)pyrimidine-4-carboxamide]	1200 nM
CN(CCc1ccccc1)c1nc(C(=O)NC2CC2)cc(N2CCOCC2)n1 [Example 13, N-cyclopropyl-2-(methyl (phenethyl)amino)-6-morpholinopyrimidine-4-carboxamide]	3720 nM
CCCNC(=O)c1cc(N2CCOCC2)nc(N(C)CCc2ccccc2)n1 [Example 14, N-propyl-2-(methyl (phenethyl)amino)-6-morpholino-pyrimidine-4-carboxamide]	1820 nM
CN(CCc1ccccc1)c1nc(C(=O)NCC2CC2)cc(N2CCN(C(=O)c3ccccc3)CC2)n1 [Example 16, 6-(4-benzoylpiperazin-1-yl)-N-(cyclopropylmethyl)-2-(methyl(phenethyl)amino)pyrimidine-4-carboxamide]	7760 nM
CN(CCc1ccccc1)c1nc(C(=O)NCC2CC2)cc(N2CCCC2)n1 [Example 17, N-(cyclopropylmethyl)-2-(methyl(phenethyl)amino)-6-(pyrrolidin-1-yl)pyrimidine-4-carboxamide]	224 nM
CCN(CC)c1cc(C(=O)NCC2CC2)nc(N(C)CCc2ccccc2)n1 [Example 20, N-(cyclopropylmethyl)-6-(diethylamino)-2-(methyl(phenethyl)amino)pyrimidine-4-carboxamide]	501 nM
CNc1cc(C(=O)NCC2CC2)nc(N(C)CCc2ccccc2)n1 [Example 21, N-(cyclopropylmethyl)-2-(methyl(phenethyl)amino)-6-(methylamino)pyrimidine-4-carboxamide]	851 nM
CN(CCc1cccs1)c1nc(C(=O)NCC2CC2)cc(N2CCOCC2)n1 [Example 22, N-(cyclopropylmethyl)-2-(methyl(2-(thiophen-2-yl)ethyl)amino)-6-morpholinopyrimidine-4-carboxamide]	1070 nM
